# Like-named read-outs stand apart in the source and are kept apart here.
# Assays:
# [1] = biological target: recombinant human PIM2 (Homo sapiens, UniProt Q9P1W9); experiment: PIM-2 assay (33P-ATP filter plate); format: biochemical; conditions: for IC50: Table 5
# Protocol: PIM-2 Assay Method: Test compounds dissolved and diluted in DMSO (2 μl) were added to a reaction mixture comprising 10 μl of 5× Reaction Buffer (40 mM MOPS pH 7.0, 5 mM EDTA), 10 μl of recombinant human PIM2 solution (4 ng PIM-2 dissolved in dilution buffer (20 mM MOPS pH 7.0; EDTA 1 mM; 5% Glycerol; 0.01% Brij 35; […]; […] 2-mercaptoethanol; 1 mg/ml BSA)) and 8 ul of water. Reactions were initiated by the addition of 10 ul of ATP Solution (49% (15 mM MgCl2; 75 uM ATP) 1% ([γ-^33P]ATP: Stock 1 mCi/1000; 3000Ci/mmol (Perkin Elmer)) and 10 ul of substrate peptide solution (RSRSSYPAGT, dissolved in water at a concentration of 1 mM), Reactions were maintained for 10 min at 30° C. The reactions were quenched with 100 ul of 0.75% Phosphoric acid, then transferred to and filtered through a Phosphocellulose filter plate (Millipore, MSPH-N6B-50). After washing each well 4 times with 0.75% Phosphoric acid, scintillation fluid (20 uL) was added to each well and the residual radioactivity was measured using a Wallac luminescence counter.
# [2] = biological target: T1, recombinant human CK2 (Homo sapiens, UniProt P68400); experiment: CK2 assay (cell-free, 33P-ATP filter plate); format: biochemical
# T1 construct: purchased Upstate
# T1 sequence (P68400 whole entry): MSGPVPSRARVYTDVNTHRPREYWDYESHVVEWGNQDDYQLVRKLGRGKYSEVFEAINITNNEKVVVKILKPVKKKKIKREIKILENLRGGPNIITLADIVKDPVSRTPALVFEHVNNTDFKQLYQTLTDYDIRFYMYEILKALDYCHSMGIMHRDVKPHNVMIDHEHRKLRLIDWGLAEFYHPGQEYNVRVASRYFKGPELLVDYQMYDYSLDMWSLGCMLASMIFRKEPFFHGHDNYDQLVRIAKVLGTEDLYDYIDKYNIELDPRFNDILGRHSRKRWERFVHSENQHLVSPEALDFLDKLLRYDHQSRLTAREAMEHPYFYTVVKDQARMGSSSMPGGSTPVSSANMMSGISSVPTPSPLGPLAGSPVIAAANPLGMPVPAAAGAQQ
# T1 sequence (P67870 whole entry partner): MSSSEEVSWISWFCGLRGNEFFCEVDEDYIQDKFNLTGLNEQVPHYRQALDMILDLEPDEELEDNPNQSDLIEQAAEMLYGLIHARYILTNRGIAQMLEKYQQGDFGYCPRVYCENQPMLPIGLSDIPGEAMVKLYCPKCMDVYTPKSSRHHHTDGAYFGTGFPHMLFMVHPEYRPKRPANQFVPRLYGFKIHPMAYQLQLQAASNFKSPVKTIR
# Protocol: Modulatory activity of compounds described herein was assessed in vitro in cell-free CK2 assays by the following method.
# Test compounds in aqueous solution were added at a volume of 10 microliters, to a reaction mixture comprising 10 microliters Assay Dilution Buffer (ADB; 20 mM MOPS, pH 7.2, 25 mM beta-glycerolphosphate, 5 mM EGTA, 1 mM sodium orthovanadate and 1 mM dithiothreitol), 10 microliters of substrate peptide (RRRDDDSDDD, dissolved in ADB at a concentration of 1 mM), 10 microliters of recombinant human CK2 (25 ng dissolved in ADB; Upstate). Reactions were initiated by the addition of 10 microliters of ATP Solution (90% 75 mM MgCl2, 75 micromolar ATP dissolved in ADB; 10% [γ-^33P]ATP (stock 1 mCi/100 μl; 3000 Ci/mmol (Perkin Elmer) and maintained for 10 minutes at 30 degrees C. The reactions were quenched with 100 microliters of 0.75% phosphoric acid, then transferred to and filtered through a phosphocellulose filter plate (Millipore). After washing each well 5 times with 0.75% phosphoric acid, the plate was dried under vacuum for 5 min and, following the addition of 15 ul of scintillation fluid to each well, the residual radioactivity was measured using a Wallac luminescence counter.
# [3] = test system: MDAMB231; experiment: Alamar Blue cell proliferation assay, MDAMB231; format: cell-based; conditions: Homo sapiens
# Protocol: (§1) A representative cell-proliferation assay protocol using Alamar Blue dye (stored at 4° C., use 20 ul per well) is described hereafter.
# (§2) a. Split and trypsinize cells.
# (§3) b. Count cells using hemocytometer.
# (§4) c. Plate 4,000-5,000 cells per well in 100 μl of medium and seed into a 96-well plate according to the following plate layout. Add cell culture medium only to wells B10 to B12. Wells B1 to B9 have cells but no compound added.
# (§5) d. Add 100 μl of 2× drug dilution to each well in a concentration shown in the plate layout above. At the same time, add 100 μl of media into the control wells (wells B10 to B12). Total volume is 200 μl/well.
# (§6) e. Incubate four (4) days at 37° C., 5% CO2 in a humidified incubator.
# (§7) f. Add 20 μl Alamar Blue reagent to each well.
# (§8) g. Incubate for four (4) hours at 37° C., 5% CO2 in a humidified incubator.
# (§9) h. Record fluorescence at an excitation wavelength of 544 nm and emission wavelength of 590 nm using a microplate reader.
# (§10) In the assays, cells are cultured with a test compound for approximately four days, the dye is then added to the cells and fluorescence of […] dye is detected after approximately four hours. Different types of cells can be utilized in the assays (e.g., HCT-116 human colorectal carcinoma cells, PC-3 human prostatic cancer cells and MiaPaca human pancreatic carcinoma cells).
# [4] = test system: MV-4-11; experiment: Alamar Blue cell proliferation assay, MV-4-11; format: cell-based; conditions: Homo sapiens
# Protocol: as §1, §2, §3, §4, §5, §6, §7, §8, §9, §10
# [5] = test system: MiaPaca human pancreatic carcinoma cells; experiment: Alamar Blue cell proliferation assay, MiaPaCa; format: cell-based
# Protocol: as §1, §2, §3, §4, §5, §6, §7, §8, §9, §10
# [6] = biological target: recombinant PIM-1 (Homo sapiens, UniProt P11309); experiment: PIM-1 assay (33P-ATP filter plate); format: biochemical; conditions: read-out: PIM1: IC50
# Sequence of recombinant PIM-1 (P11309 whole entry): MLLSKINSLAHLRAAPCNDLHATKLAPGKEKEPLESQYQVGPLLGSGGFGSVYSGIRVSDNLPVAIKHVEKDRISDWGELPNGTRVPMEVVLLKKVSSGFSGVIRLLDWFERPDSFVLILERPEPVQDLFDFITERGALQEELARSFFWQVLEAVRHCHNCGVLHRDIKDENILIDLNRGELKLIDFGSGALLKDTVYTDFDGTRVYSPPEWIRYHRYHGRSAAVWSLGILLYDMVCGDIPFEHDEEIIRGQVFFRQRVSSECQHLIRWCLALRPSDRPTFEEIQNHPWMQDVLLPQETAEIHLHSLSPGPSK
# Protocol: The following procedure was used to assay the PIM-1 kinase activity of compounds of the invention. Other methods for assaying PIM-1 and other PIM kinases, as well as methods to assay for activity against the various kinases are known in the art.
# In a final reaction volume of 50 ul, recombinant PIM-1 (1 ng) was incubated with 12 mM MOPS pH 7.0, 0.4 mM EDTA, glycerol 1%, brij 35 0.002%, 2-mercaptoethanol 0.02%, BSA 0.2 mg/ml, 100 uM KKRNRTLTK, 10 mM MgAcetate, 15 uM ATP, [γ-^33P-ATP] (specific activity approx. 500 cpm/pmol), DMSO 4% and test inhibitor compound at the required concentration. The reaction was initiated by the addition of the Magnesium ATP mixture. After 40 min incubation at 23° C., the reactions were quenched by the addition of 100 ul 0.75% Phosphoric acid, and the labeled peptide collected by filtration through a phosphocellulose filter plate. The plate was washed 4 times with 0.075% phosphoric acid (100 ul per well) and then, after the addition of scintillation fluid (20 ul per well), the counts were measured by a scintillation counter.
# [7] = test system: PC-3 human prostatic cancer cells; experiment: Alamar Blue cell proliferation assay, PC3; format: cell-based
# Protocol: as §1, §2, §3, §4, §5, §6, §7, §8, §9, §10
# [8] = test system: K-562; experiment: Alamar Blue cell proliferation assay, K-562; format: cell-based; conditions: Homo sapiens
# Protocol: as §1, §2, §3, §4, §5, §6, §7, §8, §9, §10
# [9] = MDA-MB-231, MDAMB231, Table 2, read-out: AB: MDAMB231 IC50
# [10] = MV4-11, MV-4-11, Table 2, read-out: AB: MV-4-11 IC50
# [11] = MIA PaCa-2, Table 2, read-out: AB: MiaPaCa IC50
# [12] = PC3, Table 2, read-out: AB: PC3 IC50
# [13] = K562, K-562, Table 2, read-out: AB: K-562 IC50
# [14] = MDA-MB-231, MDAMB231, Table 1, read-out: AB: MDAMB231 IC50
# [15] = MV4-11, MV-4-11, Table 1, read-out: AB: MV-4-11 IC50
# [16] = MIA PaCa-2, Table 1, read-out: AB: MiaPaCa IC50
# [17] = PC-3, PC3, Table 1, read-out: AB: PC3
# [18] = K562, K-562, Table 1, read-out: AB: K-562 IC50
# Sequence of recombinant human PIM2 (Q9P1W9 whole entry): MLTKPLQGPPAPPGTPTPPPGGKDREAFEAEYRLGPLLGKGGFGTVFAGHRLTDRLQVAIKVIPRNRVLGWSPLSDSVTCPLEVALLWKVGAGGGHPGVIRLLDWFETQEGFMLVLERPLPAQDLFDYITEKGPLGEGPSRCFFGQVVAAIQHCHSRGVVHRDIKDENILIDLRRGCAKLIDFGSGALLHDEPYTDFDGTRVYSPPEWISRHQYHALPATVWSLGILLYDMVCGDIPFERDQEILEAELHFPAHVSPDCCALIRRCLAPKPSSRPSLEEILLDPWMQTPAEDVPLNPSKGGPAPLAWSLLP
SMILES,"IC50 [3, 14] [µM]","IC50 [4, 15] [µM]","IC50 [5, 16] [µM]",IC50 ([6]; Table 1) [µM],"IC50 [7, 17] [µM]","IC50 [8, 18] [µM]",IC50 ([2]; Table 1) [µM],further results
COc1ccc(/C=C2\SC(=O)NC2=O)cc1-c1cncc(N2CCCNCC2)n1,,,,,,,,"inhibition at 2.5 µM ([1]; @ 2.5 uM, Table 6, read-out: PIM2: % inh @ 2.5 uM): 98.5%; IC50 ([2]; Table 6): 0.472 µM"
CN1CCCN(C(=O)c2cccc(-c3ccc(/C=C4/SC(=O)NC4=O)o3)c2)CC1,,,,,,,,"IC50 [3, 9]: > 10 µM; IC50 [4, 10]: > 1 µM; IC50 [5, 11]: > 10 µM; IC50 ([6]; Table 2): 0.111 µM; IC50 [7, 12]: > 30 µM; IC50 [8, 13]: > 10 µM; IC50 ([2]; Table 2): 0.011 µM"
O=C1NC(=S)S/C1=C\c1ccc(-c2ccccc2)o1,> 10,> 10,> 10,0.059,> 10,> 10,0.004,
O=C1NC(=S)S/C1=C\c1ccc(-c2cc(C(=O)O)ccc2Cl)o1,> 10,> 10,> 10,0.199,> 30,> 10,0.027,
CN1CCCN(c2cncc(-c3cccc(/C=C4\SC(=O)N(C)C4=O)c3)n2)CC1,,,,,,,,IC50 [1]: 2.35 µM; IC50 ([6]; Table 5): 0.44 µM; IC50 ([2]; Table 5): > 5 µM
O=C1NC(=S)S/C1=C\c1ccc(-c2cccc(C(=O)N3CC[C@H](F)C3)c2)o1,> 10,9.5,> 10,0.013,> 30,> 10,0.012,
COc1cc(OC)cc(C(=O)N2CCCN(c3cncc(-c4cc(/C=C5/SC(=O)NC5=O)ccc4F)n3)CC2)c1,,,,,,,,IC50 [1]: 0.175 µM; IC50 ([2]; Table 5): 0.181 µM
CCNC(=O)c1cccc(-c2ccc(/C=C3\SC(=S)NC3=O)o2)c1,> 10,> 10,> 10,0.028,> 30,> 10,0.264,
NC(=O)c1cccc(-c2ccc(/C=C3\SC(=S)NC3=O)o2)c1,> 10,> 10,> 10,0.004,> 10,> 10,0.004,
COCCNC(=O)c1cccc(-c2ccc(/C=C3\SC(=S)NC3=O)o2)c1,> 10,> 10,> 10,0.031,> 30,> 10,0.123,
O=C1NC(=O)/C(=C\c2ccc(-c3ccc(C(=O)O)cc3)o2)S1,,,,,,,,"IC50 [3, 9]: > 10 µM; IC50 [4, 10]: > 1 µM; IC50 [5, 11]: > 10 µM; IC50 ([6]; Table 2): 0.041 µM; IC50 [7, 12]: > 30 µM; IC50 [8, 13]: > 10 µM; IC50 ([2]; Table 2): 0.009 µM"
CC(=O)NC1CCN(C(=O)c2cccc(-c3ccc(/C=C4\SC(=S)NC4=O)o3)c2)C1 (stereo not shown),> 10,> 10,> 10,0.038,> 30,> 10,0.444,
